According to US20020032214A1, “Pharmaceutical composition comprising a compound having anti-xa activity and a platelet aggregation antagonist compound” (priority 1996, published 2002):

Experiment: Template bleeding time in the canine model of unstable angina
Format: in vivo, Mongrel dogs
Conditions: high-dose of the platelet aggregation antagonist compound, i.v., dogs
Method: Mongrel dogs of either sex (15-21 kg) are anesthetized with sodium pentobarbital (30 mg/kg, i.v., with supplements given as needed), intubated, and ventilated using a Harvard respirator (Harvard Apparatus. S. Natick, Mass.). A tri-lumen catheter (SAFEDWELLplus, Becton Dickinson, Sandy, Utah) is placed in the right femoral vein for the administration of test agents and supplemental anesthesia. The right femoral artery is cannulated for measurement of arterial blood pressure and for obtaining blood samples.
Thirty dogs are assigned to one of six adjunctive treatment groups. […]
After consistent CFRs are established for at least 20 minutes, compounds are administered as described above and blood flow is monitored during the one hour infusion period. […] Mean arterial blood pressure, heart rate and EKG are recorded for the duration of the protocol (Grass polygraph, Model 7D, Grass Instruments, Mass.).
Template bleeding time measurements are obtained at the same time points as the blood samples, as mentioned previously. Template bleeding time is measured after a uniform incision is made on the mucous membrane of the inner upper lip with a Surgicutt® automated incision device (ITC, Edison, N.J.). […] Template bleeding time is measured from the moment of the incision until the blood no longer stained the blotting paper. […]

- increase in template bleeding time: > 5 fold
SMILES: CCCCS(=O)(=O)N[C@@H](Cc1ccc(OCCCCC2CCNCC2)cc1)C(=O)O [BSPBPA, N-(n-butylsulfonyl)-4-(piperidin-4-ylbutyloxy)-L-phenylalanine]
